Consider 24 molecules from patent publication US20230192700A1, “PYRAZOLOPYRAZINES ACTING ON CANCERS VIA INHIBITION OF CDK12” (Bayer Aktiengesellschaft, priority 2020, published 2023).

pIC50: −log10 of the molar value.

For the assay, the target named is T1, CDK12/CyclinK (Homo sapiens, UniProt Q9NYV4).
T1 construct: His-CDK12 (aa Q696-S1082); made in house; host or cells: Hi-5 insect cells (baculovirus co-infection with CycK and yeast CAK1)
T1 sequence (Q9NYV4 with tags, fused parts or gaps): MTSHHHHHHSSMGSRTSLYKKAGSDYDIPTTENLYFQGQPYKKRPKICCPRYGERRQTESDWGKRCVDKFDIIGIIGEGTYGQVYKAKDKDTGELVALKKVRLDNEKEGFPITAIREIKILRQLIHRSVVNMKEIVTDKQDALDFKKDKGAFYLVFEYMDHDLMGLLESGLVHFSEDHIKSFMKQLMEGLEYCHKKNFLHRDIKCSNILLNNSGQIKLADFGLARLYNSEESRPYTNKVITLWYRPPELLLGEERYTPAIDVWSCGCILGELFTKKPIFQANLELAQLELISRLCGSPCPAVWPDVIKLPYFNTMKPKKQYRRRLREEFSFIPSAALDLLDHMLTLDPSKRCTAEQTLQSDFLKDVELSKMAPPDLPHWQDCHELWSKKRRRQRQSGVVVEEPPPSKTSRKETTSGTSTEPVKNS
T1 sequence (O75909 with tags, fused parts or gaps partner limits assumed): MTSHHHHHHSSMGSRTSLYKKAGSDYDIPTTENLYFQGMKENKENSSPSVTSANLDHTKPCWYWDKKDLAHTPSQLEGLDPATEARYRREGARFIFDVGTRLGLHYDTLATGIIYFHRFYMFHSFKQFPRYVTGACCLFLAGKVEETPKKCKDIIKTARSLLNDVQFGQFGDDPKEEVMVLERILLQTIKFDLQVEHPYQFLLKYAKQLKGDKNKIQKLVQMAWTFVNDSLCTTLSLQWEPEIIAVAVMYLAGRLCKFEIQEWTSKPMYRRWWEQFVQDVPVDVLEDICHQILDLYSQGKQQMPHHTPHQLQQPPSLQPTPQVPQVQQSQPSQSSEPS
Put plainly: CDK12/CycK high ATP kinase assay (TR-FRET). In kind it is biochemical. The conditions noted are these: 2 mM ATP (high ATP); median; read-out: CDK12/CyclinK, 2 mM ATP (high ATP), IC50 - [mol/l] (median). The source says: 2.2 CDK12/CycK high ATP Kinase Assay
In the context of the present invention, the term “IC50 CDK12 hATP” refers to the ICso values obtained according to the assay described in this section (2.2) herein below, i.e. the IC50 values for the inhibition of CDK12 at high ATP.
CDK12/CycK -inhibitory activity of compounds of the present invention at 2 millimol/L adenosine-tri-phosphate (ATP) was quantified employing the TR-FRET (TR-FRET=Time Resolved Fluorescence Energy Transfer) based CDK12/CycK activity inhibition assay as described in the following paragraphs.
A complex of human recombinant CDK12 and human recombinant CycK (both N-terminally His-tagged, expression and purification as described above) was used as enzyme. As substrate for the kinase reaction biotinylated peptide biotin-Ahx-KFELLPTPPLSPSRRSGL (C-terminus in amid form) was used which can be purchased e.g. form the company Biosyntan (Berlin-Buch, Germany).
For the assay 50 nanoL of a 100 fold concentrated solution of the test compound in DMSO was pipetted into either a black low volume 384 well microtiter plate or a black 1536 well microtiter plate (both Greiner Bio-One, Frickenhausen, Germany), 2 microL of a solution of CDK12/CycK in aqueous assay buffer [25 millimol/L HEPES pH 7.5, 20 millimol/L MgCl2, 5 millimol/L β-glycerophosphate, 2 millimol/L EGTA, 1.0 millimol/L dithiothreitol, 0.01% (v/v) Nonidet-P40 (Sigma), 0.01% (w/v) bovine serum albumin] were added and the mixture was incubated for 15 min at 22° C. to allow pre-binding of the test compounds to the enzyme before the start of the kinase reaction. Then the kinase reaction was started by the addition of 3 microL of a solution ATP (3.33 millimol/L=>final conc. in the 5 microL assay volume is 2 millimol/L) and substrate (1.67 micromol/L=>final conc. in the 5 microL assay volume is 1 micromol/L) in assay buffer and the resulting mixture was incubated for a reaction time of 60 min at 22° C. The concentration of CDK12/CycK was adjusted depending of the activity of the enzyme lot and was chosen appropriate to have the assay in the linear range, typical concentrations were about 0.75 nanomol/L. The reaction was stopped by the addition of 3 microL of a solution of TR-FRET detection reagents (125 nanomol/L streptavidine-XL665 [Cisbio Bioassays, Codolet, France] and 0.67 nanomol/L anti-Phospho-c-Myc (Ser 62) (E1J4K)-antibody from Cell Signalling [#13748] and 2 nanomol/L LANCE EU-W1024 labeled anti-rabbit IgG antibody [Perkin-Elmer, product no. 0083]) in an aqueous EDTA-solution (133 millimol/L EDTA, 0.27% (w/v) bovine serum albumin in 66.7 millimol/L HEPES pH 7.5).
The resulting mixture was incubated 1 h at 22° C. to allow the formation of complex between the phosphorylated biotinylated peptide and the detection reagents. Subsequently the amount of phosphorylated substrate was evaluated by measurement of the resonance energy transfer from the Eu-chelate to the streptavidine-XL. Therefore, the fluorescence emissions at 620 nm and 665 nm after excitation at 350 nm was measured in a TR-FRET reader, e.g. a Pherastar FS (BMG Labtechnologies, Offenburg, Germany) or a Viewlux (Perkin-Elmer). The ratio of the emissions at 665 nm and at […] was taken as the measure for the amount of phosphorylated substrate. The data were normalised (enzyme reaction without inhibitor=0% inhibition, all other assay components but no enzyme=100% inhibition).
(Time-resolved FRET reads energy transfer from a long-lived donor to a nearby acceptor.)
With `COCCC(C)n1nc(NCc2nc3ccccc3[nH]2)c2ncc(C3CC3)nc21` (single isomer, unassigned; (-)) [Example 58, (−)-N-[(1H-benzimidazol-2-yl)methyl]-6-cyclopropyl-1-[4-methoxybutan-2-yl]-1H-pyrazolo[3,4-b]pyrazin-3-amine], the pIC50 is less than 4.70.
The result for `CC(CCN(C)C)n1nc(NCc2nc3ccccc3[nH]2)c2ncc(C3CC3)nc21` (single isomer, unassigned) [Example 64, (−) or(+)-N-[(1H-benzimidazol-2-yl)methyl]-6-cyclopropyl-1-[4-(dimethylamino)butan-2-yl]-1H-pyrazolo[3,4-b]pyrazin-3-amine] reads less than 4.70; that for `COCCCn1nc(NCc2nc3ccccc3[nH]2)c2ncc(C3CC3)nc21` [Example 61, N-[(1H-benzimidazol-2-yl)methyl]-6-cyclopropyl-1-(3-methoxypropyl)-1H-pyrazolo[3,4-b]pyrazin-3-amine], less than 4.70; that for `COCCC(C)n1nc(NCc2nc3ccccc3[nH]2)c2ncc(C3CC3)nc21` (racemic) [Example 57, (±)-N-[(1H-benzimidazol-2-yl)methyl]-6-cyclopropyl-1-(4-methoxybutan-2-yl)-1H-pyrazolo[3,4-b]pyrazin-3-amine], less than 4.70.
The result for `OC[C@H]1C[C@H](n2nc(NCc3nc4ccccc4[nH]3)c3ncc(C4CC4)nc32)C1` [Example 46, [trans-3-(3-{[(1H-benzimidazol-2-yl)methyl]amino}-6-cyclopropyl-1H-pyrazolo[3,4-b]pyrazin-1-yl)cyclobutyl]methanol] reads less than 4.70; that for `CC(C)n1nc(NCc2nc3ccccc3[nH]2)c2ncc(C3CC3)nc21` [Example 14, N-[(1H-benzimidazol-2-yl)methyl]-6-cyclopropyl-1-(propan-2-yl)-1H-pyrazolo[3,4-b]pyrazin-3-amine], less than 4.70.
The same measure for `CC(C)(O)Cn1nc(NCc2nc3ccccc3[nH]2)c2ncc(C3CC3)nc21` [Example 69, 1-(3-{[(1H-benzimidazol-2-yl)methyl]amino}-6-cyclopropyl-1H-pyrazolo[3,4-b]pyrazin-1-yl)-2-methylpropan-2-ol]: less than 5.00; for `CC(C)(O)C1CC(n2nc(NCc3nc4ccccc4[nH]3)c3ncc(C4CC4)nc32)C1` (mixture of isomers) [Example 48, 2-[cis/trans-3-(3-{[(1H-benzimidazol-2-yl)methyl]amino}-6-cyclopropyl-1H-pyrazolo[3,4-b]pyrazin-1-yl)cyclobutyl]propan-2-ol]: 4.86; for `O=CO.c1ccc(-n2nc(NCc3nc4ccccc4[nH]3)c3ncc(C4CC4)nc32)cc1` [Example 13, formic acid—N-[(1H-benzimidazol-2-yl)methyl]-6-cyclopropyl-1-phenyl-1H-pyrazolo[3,4-b]pyrazin-3-amine (1/1)]: less than 4.70.
For `c1ccc2[nH]c(CNc3nn(C4CCOC4)c4nc(C5CC5)cnc34)nc2c1` (single isomer, unassigned) [Example 17, (+) or (−)-N-[(1H-benzimidazol-2-yl)methyl]-6-cyclopropyl-1-(oxolan-3-yl)-1H-pyrazolo[3,4-b]pyrazin-3-amine], the pIC50 was less than 4.70.
The result for `OC[C@H]1C[C@@H](n2nc(NCc3nc4ccccc4[nH]3)c3ncc(C4CC4)nc32)C1` [Example 47, [cis-3-(3-{[(1H-benzimidazol-2-yl)methyl]amino}-6-cyclopropyl-1H-pyrazolo[3,4-b]pyrazin-1-yl)cyclobutyl]methanol] reads 4.89; that for `COCCn1nc(NCc2nc3ccccc3[nH]2)c2ncc(C3CC3)nc21` [Example 65, N-[(1H-benzimidazol-2-yl)methyl]-6-cyclopropyl-1-(2-methoxyethyl)-1H-pyrazolo[3,4-b]pyrazin-3-amine], less than 4.70; that for `OCCCn1nc(NCc2nc3ccccc3[nH]2)c2ncc(C3CC3)nc21` [Example 60, 3-(3-{[(1H-benzimidazol-2-yl)methyl]amino}-6-cyclopropyl-1H-pyrazolo[3,4-b]pyrazin-1-yl)propan-1-ol], less than 4.70.
Take `O[C@H]1CC[C@H](n2nc(NCc3nc4ccccc4[nH]3)c3ncc(C4CC4)nc32)CC1` [Example 50, trans-4-(3-{[(1H-benzimidazol-2-yl)methyl]amino}-6-cyclopropyl-1H-pyrazolo[3,4-b]pyrazin-1-yl)cyclohexan-1-ol]: the pIC50 was 5.21.
The result for `c1ccc2[nH]c(CNc3nn(C4CCOC4)c4nc(C5CC5)cnc34)nc2c1` (single isomer, unassigned) [Example 18, (-) or (+) -N-[(1H-benzimidazol-2-yl)methyl]-6-cyclopropyl-1-[oxolan-3-yl]-1H-pyrazolo[3,4-b]pyrazin-3-amine] reads less than 4.70; that for `CC(CCN(C)C)n1nc(NCc2nc3ccccc3[nH]2)c2ncc(C3CC3)nc21` (single isomer, unassigned) [Example 63, (+) or (−)-N-[(1H-benzimidazol-2-yl)methyl]-6-cyclopropyl-1-[4-(dimethylamino)butan-2-yl]-1H-pyrazolo[3,4-b]pyrazin-3-amine], less than 4.70; that for `OCC1(Cn2nc(NCc3nc4ccccc4[nH]3)c3ncc(C4CC4)nc32)CCC1` [Example 74, {1-[(3-{[(1H-benzimidazol-2-yl)methyl]amino}-6-cyclopropyl-1H-pyrazolo[3,4-b]pyrazin-1-yl)methyl]cyclobutyl}methanol], less than 5.00.
The result for `CN1CCC(n2nc(NCc3nc4cc(Cl)c(Cl)cc4[nH]3)c3ncc(C4CC4)nc32)CC1` [Example 19, 6-cyclopropyl-N-[(5,6-dichloro-1H-benzimidazol-2-yl)methyl]-1-(1-methylpiperidin-4-yl)-1H-pyrazolo[3,4-b]pyrazin-3-amine] reads less than 4.70; that for `Cc1ccc2[nH]c(CNc3nn(C4CCN(C)CC4)c4nc(C5CC5)cnc34)nc2c1` [Example 6, 6-cyclopropyl-N-[(5-methyl-1H-benzimidazol-2-yl)methyl]-1-(1-methylpiperidin-4-yl)-1H-pyrazolo[3,4-b]pyrazin-3-amine], less than 4.70.
The same measure for `COC(C)(C)CCn1nc(NCc2nc3ccccc3[nH]2)c2ncc(C3CC3)nc21` [Example 67, N-[(1H-benzimidazol-2-yl)methyl]-6-cyclopropyl-1-(3-methoxy-3-methylbutyl)-1H-pyrazolo[3,4-b]pyrazin-3-amine]: less than 4.70; for `COc1cccc2[nH]c(CNc3nn(C4CCN(C)CC4)c4nc(C5CC5)cnc34)nc12` [Example 2, 6-cyclopropyl-N-[(4-methoxy-1H-benzimidazol-2-yl)methyl]-1-(1-methylpiperidin-4-yl)-1H-pyrazolo[3,4-b]pyrazin-3-amine]: less than 4.70.
`CN1CCC(n2nc(NCc3nc4ccccc4[nH]3)c3ncc(C4CC4)nc32)C1` (single isomer, unassigned) [Example 78, (+) or (−)-N-[(1H-benzimidazol-2-yl)methyl]-6-cyclopropyl-1-(1-methylpyrrolidin-3-yl)-1H-pyrazolo[3,4-b]pyrazin-3-amine]: the pIC50 was less than 4.70.
For the molecule `OCCn1nc(NCc2nc3ccccc3[nH]2)c2ncc(C3CC3)nc21` [Example 66, 2-(3-{[(1H-benzimidazol-2-yl)methyl]amino}-6-cyclopropyl-1H-pyrazolo[3,4-b]pyrazin-1-yl)ethan-1-ol], the pIC50 was less than 4.70.
The same measure for `c1ccc2[nH]c(CNc3nn(C4COC4)c4nc(C5CC5)cnc34)nc2c1` [Example 55, N-[(1H-benzimidazol-2-yl)methyl]-6-cyclopropyl-1-(oxetan-3-yl)-1H-pyrazolo[3,4-b]pyrazin-3-amine]: less than 4.70.
